Data on one molecule can be found in PMC8945229, “Development and Biological Characterization of a Novel Selective TrkA Agonist with Neuroprotective Properties against Amyloid Toxicity” (Biomedicines, 2022).

Structures are written as SMILES.

Assay [1] deals with Primary Dorsal Root Ganglia (DRG) neurons. Nature of the assay: TUNEL assay in primary DRG neurons upon NGF withdrawal. It is filed as cell-based, mouse. The conditions noted are these: 500 nM every 24 h, 48 h, NGF-neutralizing antibody. How it is done:
Primary Dorsal Root Ganglia (DRG) neurons were isolated from P0-P1 mouse pups (C57BL/6J, The Jackson Laboratory, Bar Harbor, ME, USA) as described previously and cultured with Neurobasal medium (21103049 Gibco, Grand Island, NY, USA) containing 2% B27 (17504044, Gibco, Grand Island, NY, USA), 100 ng/mL NGF (N-100, Alomone Labs, Jerusalem, Israel), 1X GlutaMax (35050061, Gibco, Grand Island, NY, USA), 10 mM HEPES (15630080, Gibco, Grand Island, NY, USA), 1% Penicillin/Streptomycin (15070063, Gibco, Grand Island, NY, USA) and 10 μM 5-Fluoro-2′-deoxyuridine (343333, Calbiochem, Darmstadt, Germany). For TUNEL assay, cells were cultured for 14 days in vitro and then the medium was deprived of NGF before adding ENT-A013 (500 nM, every 24 h) along with NGF-neutralizing antibody (N8773, 1:500, Sigma-Aldrich, St. Louis, MO, USA). Cells were then incubated for 48 h before being fixed with 4% PFA and labelled with TUNEL (11684795910, F. Hoffmann–La Roche Ltd., Basel, Switzerland) following the manufacturer’s protocol. Subsequently, cells were immunostained against Tuj1 (1:2000, 801201, Biolegend, Inc., San Diego, CA, USA) and anti-mouse Cy3 (1:1000, Invitrogen, A10521, Waltham, MA, USA) and imaged with a Leica SP8 confocal microscope. […] Cells were then imaged by confocal microscopy and neurite length was measured using Fiji software (NIH, Bethesda, Maryland, USA).

The subject of another assay is hippocampal brain slices. The assay can be described thus: LTP electrophysiology in hippocampal brain slices treated with oligomeric Aβ. To be noted: oligomeric Aβ 5 μM, 500 nM, 3–5 h, vs slices treated only with Aβ. Also noted: species or system mouse. The source says: C57BL/6J mice were euthanized under halothane anesthesia and the brain was quickly dissected and placed in ice-cold oxygenated artificial cerebrospinal fluid (aCSF; 95% O2/5% CO2) containing (in mM): 125 NaCl, 3.5 KCl, 26 NaHCO3, 1 MgCl2 and 10 glucose (pH = 7.4, 315 mOsm/L). The brain was then placed onto the stage of a vibratome (Leica, VT1000S, Leica Biosystems GmbH, Wetzlar, Germany) and transverse slices containing the hippocampus were obtained. […] Field excitatory post-synaptic potentials (fEPSP) were amplified using an EXT-02F amplifier ([…]), digitized with ITC-18 (HEKA Elektronik GmbH, Reutlingern, Germany) and recorded in a computer running Windows 10 with IgorPro software (Wavemetrics Inc., Portland, OR, USA). […] The fEPSP amplitude was calculated from the minimum voltage value of the synaptic response (3–5 ms following stimulation) compared to the baseline voltage prior to stimulation. fEPSP recordings were acquired every 90″ for 10′ before TBS and continued for approximately 50′ following LTP induction. Recorded traces were analyzed using a custom-made script in the IgorPro software (Wavemetrics Inc., Portland, OR, USA).

For `CC12CCC(O)CC1=CCC1C2CCC2(C)C1CCC21CC1C=CBr` [ENT-A013, (2′R,3S,17S)-2′-(2-Bromovinyl)-5-Androstene-17,1′-Cyclopropan-3-ol], in assay [1], the “NGF deprivation-induced apoptosis (TUNEL, in words)” value was “significantly reverse the NGF deprivation-induced apoptosis”. Moreover, the “synaptic potentiation after TBS (in words)” value with hippocampal brain slices is on record as “significantly increased synaptic potentiation”.
